Consider 23 molecules from patent US9499547B2 (BAYER INTELLECTUAL PROPERTY GMBH, priority 2011, dated 2016).

Where a name gives a salt, the structure may show the parent alone.

Experiment [1] deals with T1, human full-length MKNK1 (Homo sapiens (Human), UniProt Q9BUB5, T344D). Briefly: MKNK1 kinase assay (MKNK1 TR-FRET assay). The experiment is classed as biochemical. The note with it: 10 μM ATP final conc.; 15 min preincubation with enzyme. On the procedure: MKNK1-inhibitory activity of compounds of the present invention was quantified employing the MKNK1 TR-FRET assay as described in the following paragraphs.
As substrate for the kinase reaction the biotinylated peptide biotin-Ahx-[…] (C-terminus in amide form) was used which can be purchased e.g. form the company Biosyntan (Berlin-Buch, Germany).
(§1) For the assay 50 nL of a 100 fold concentrated solution of the test compound in DMSO was pipetted into a black low volume 384 well microtiter plate (Greiner Bio-One, Frickenhausen, Germany), 2 μL of a solution of MKNK1 in aqueous assay buffer [50 mM HEPES pH 7.5, 5 mM magnesium chloride, 1.0 mM dithiothreitol, 0.005% (v/v) Nonidet-P40 (Sigma)] was added and the mixture was incubated for 15 min at 22° C. to allow pre-binding of the test compounds to the enzyme before the start of the kinase reaction. Then the kinase reaction was started by the addition of 3 μL of a solution of adenosine-tri-phosphate (ATP, 16.7 μM=>final conc. in the 5 μL assay volume is 10 μM) and substrate (0.1 μM=>final conc. in the 5 μL assay volume is 0.06 μM) in assay buffer and the resulting mixture was incubated for a reaction time of 45 min at 22° C. The concentration of MKNK1 was adjusted depending of the activity of the enzyme lot and was chosen appropriate to have the assay in the linear range, typical concentrations were in the range of 0.05 μg/ml. The reaction was stopped by the addition of 5 μL of a solution of TR-FRET detection reagents (5 nM streptavidine-XL665 [Cisbio Bioassays, Codolet, France] and 1 nM anti-ribosomal protein S6 (pSer236)-antibody from Invitrogen [#44921G] and 1 nM LANCE EU-W1024 labeled ProteinG [Perkin-Elmer, product no. AD0071]) in an aqueous EDTA-solution (100 mM EDTA, 0.1% (w/v) bovine serum albumin in 50 mM HEPES pH 7.5).
(§2) The resulting mixture was incubated for 1 h at 22° C. to allow the formation of complex between the phosphorylated biotinylated peptide and the detection reagents. Subsequently the amount of phosphorylated substrate was evaluated by measurement of the resonance energy transfer from the Eu-chelate to the streptavidine-XL. Therefore, the fluorescence emissions at 620 nm and 665 nm after excitation at 350 nm were measured in a TR-FRET reader, e.g. a Rubystar (BMG Labtechnologies, Offenburg, Germany) or a Viewlux (Perkin-Elmer). The ratio of the emissions at 665 nm and at […] was taken as the measure for the amount of phosphorylated substrate. The data were normalised (enzyme reaction without inhibitor=0% inhibition, all other assay components but no enzyme=100% inhibition).

The target in experiment [2] is T1, human full-length MKNK1. Briefly: MKNK1 kinase high ATP assay (TR-FRET-based). The note with it: 2 mM ATP final conc.; 15 min preincubation with enzyme. It is filed as biochemical. How it is done: MKNK1 Kinase High ATP Assay
MKNK1-inhibitory activity at high ATP of compounds of the present invention after their preincubation with MKNK1 was quantified employing the TR-FRET-based MKNK1 high ATP assay as described in the following paragraphs.
As substrate for the kinase reaction the biotinylated peptide biotin-Ahx-[…] (C-terminus in amide form) was used, which can be purchased e.g. from the company Biosyntan (Berlin-Buch, Germany).
as §1, with “3.3 mM=>final” for “16.7 μM=>final”, “2 mM)” for “10 μM)”, “30” for “45”, “0.003 μg/mL.” for “0.05 μg/ml.”
as §2

T1 sequence (Q9BUB5 other isoform, or with tags, fused parts or gaps T344D): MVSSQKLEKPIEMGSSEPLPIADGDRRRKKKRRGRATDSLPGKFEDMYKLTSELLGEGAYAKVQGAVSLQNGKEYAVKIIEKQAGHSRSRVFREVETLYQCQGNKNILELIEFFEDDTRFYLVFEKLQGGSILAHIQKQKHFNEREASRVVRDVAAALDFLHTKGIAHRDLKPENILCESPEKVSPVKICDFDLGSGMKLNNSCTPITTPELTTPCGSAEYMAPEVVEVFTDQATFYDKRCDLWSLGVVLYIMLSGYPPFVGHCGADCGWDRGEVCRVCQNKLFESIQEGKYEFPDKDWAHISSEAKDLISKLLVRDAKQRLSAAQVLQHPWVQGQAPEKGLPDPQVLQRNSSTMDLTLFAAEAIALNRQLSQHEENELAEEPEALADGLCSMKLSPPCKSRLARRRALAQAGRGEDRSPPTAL

The IC50 is the concentration needed to halve the response being measured. Read a low IC50 as higher potency. On to `NC[C@H]1C[C@H](Oc2ccc3ncc(-c4cc5ccccc5o4)n3n2)C1` [Example 20, 1-(trans-3-{[3-(1-Benzofuran-2-yl)imidazo[1,2-b]pyridazin-6-yl]oxy}cyclobutyl)-methanamine], for which the values for the IC50 at human full-length MKNK1 [1] and on human full-length MKNK1 [2] were 4 nM and 6 nM, respectively.
The corresponding values for `N[C@H]1C[C@H](COc2ccc3ncc(-c4cc5ccccc5o4)n3n2)C1` [Example 22, trans-3-({[3-(1-Benzofuran-2-yl)imidazo[1,2-b]pyridazin-6-yl]oxy}methyl)cyclobutanamine] are 6 nM and 17 nM.
For `N[C@H]1CCC[C@@H]1Oc1ccc2ncc(-c3cc4ccccc4o3)n2n1` [Example 24, (1S,2S)-2-{[3-(1-Benzofuran-2-yl)imidazo[1,2-b]pyridazin-6-yl]oxy}cyclopentanamine] the same measures were 10 nM and 19 nM.
Regarding `N[C@H]1CCC[C@H]1Oc1ccc2ncc(-c3cc4ccccc4o3)n2n1` [Example 25, (1S,2R)-2-{[3-(1-Benzofuran-2-yl)imidazo[1,2-b]pyridazin-6-yl]oxy}cyclopentanamine salt with formic acid], the values for the IC50 at human full-length MKNK1 [1] and against human full-length MKNK1 [2] were 7 nM and 22 nM, respectively.
The corresponding values for `NCC(Cc1ccccc1)Oc1ccc2ncc(-c3cc4ccccc4o3)n2n1` (stereo not shown) [Example 26, 2-{[3-(1-Benzofuran-2-yl)imidazo[1,2-b]pyridazin-6-yl]oxy}-3-phenylpropan-1-amine salt with formic acid] are 15 nM and 25 nM.
For `CC(C)(N)COc1ccc2ncc(-c3cc4ccccc4o3)n2n1` [Example 29, 1-{[3-(1-Benzofuran-2-yl)imidazo[1,2-b]pyridazin-6-yl]oxy}-2-methylpropan-2-amine] the same measures were 17 nM and 59 nM.
The corresponding values for `NCC(Oc1ccc2ncc(-c3cc4ccccc4o3)n2n1)C1CC1` (stereo not shown) [Example 30, 2-{[3-(1-Benzofuran-2-yl)imidazo[1,2-b]pyridazin-6-yl]oxy}-2-cyclopropylethanamine] are 41 nM and 75 nM.
Take `NCC(CN)Oc1ccc2ncc(-c3cc4ccccc4o3)n2n1` [Example 34, 2-{[3-(1-Benzofuran-2-yl)imidazo[1,2-b]pyridazin-6-yl]oxy}propane-1,3-diamine]: the IC50 at human full-length MKNK1 [1] was 39 nM; on human full-length MKNK1 [2] it was 92 nM.
On to `NCC(Oc1ccc2ncc(-c3cc4ccccc4o3)n2n1)C1CCOC1` (stereo not shown) [Example 35, 2-{[3-(1-Benzofuran-2-yl)imidazo[1,2-b]pyridazin-6-yl]oxy}-2-(tetrahydrofuran-3-yl)ethanamine], for which the values for the IC50 on human full-length MKNK1 [1] and against human full-length MKNK1 [2] were 32 nM and 52 nM, respectively.
For `N[C@H]1C[C@H](Oc2ccc3ncc(-c4cc5c(F)cccc5o4)n3n2)C1` [Example 36, trans-3-{[3-(4-Fluoro-1-benzofuran-2-yl)imidazo[1,2-b]pyridazin-6-yl]oxy}-cyclobutanamine] the same measures were 1 nM and 2 nM.
Regarding `N[C@H]1C[C@H](Oc2ccc3ncc(-c4cc5cc(Cl)ccc5o4)n3n2)C1` [Example 37, trans-3-{[3-(5-Chloro-1-benzofuran-2-yl)imidazo[1,2-b]pyridazin-6-yl]oxy}-cyclobutanamine], the values for the half-inhibitory concentration (IC50) at human full-length MKNK1 [1] and at human full-length MKNK1 [2] were 4 nM and 5 nM, respectively.
For `COc1ccc2oc(-c3cnc4ccc(O[C@H]5C[C@H](N)C5)nn34)cc2c1` [Example 38, trans-3-{[3-(5-Methoxy-1-benzofuran-2-yl)imidazo[1,2-b]pyridazin-6-yl]oxy}-cyclobutanamine] the same measures were 3 nM and 6 nM.
The corresponding values for `N[C@H]1C[C@H](Oc2ccc3ncc(-c4cc5cc(F)ccc5o4)n3n2)C1` [Example 39, trans-3-{[3-(5-Fluoro-1-benzofuran-2-yl)imidazo[1,2-b]pyridazin-6-yl]oxy}-cyclobutanamine] are 3 nM and 6 nM.
The corresponding values for `CC(CN)COc1ccc2ncc(-c3cc4ccccc4o3)n2n1` (stereo not shown) [Example 40, 3-{[3-(1-Benzofuran-2-yl)imidazo[1,2-b]pyridazin-6-yl]oxy}-2-methylpropan-1-amine] are 9 nM and 18 nM.
For the molecule `COc1cccc2oc(-c3cnc4ccc(OCC(N)C5CC5)nn34)cc12` (stereo not shown) [Example 41, 1-Cyclopropyl-2-{[3-(4-methoxy-1-benzofuran-2-yl)imidazo[1,2-b]pyridazin-6-yl]oxy}ethanamine], the half-maximal inhibitory concentration (IC50) against human full-length MKNK1 [1] was determined as 12 nM; against human full-length MKNK1 [2], 27 nM.
For `C[C@@H](N)COc1ccc2ncc(-c3cc4ccccc4o3)n2n1` [Example 42, (2R)-1-{[3-(1-Benzofuran-2-yl)imidazo[1,2-b]pyridazin-6-yl]oxy}propan-2-amine] the same measures were 15 nM and 43 nM.
The corresponding values for `C[C@@H](N)COc1ccc2ncc(-c3cc4cc(Cl)ccc4o3)n2n1` [Example 43, (2R)-1-{[3-(5-Chloro-1-benzofuran-2-yl)imidazo[1,2-b]pyridazin-6-yl]oxy}-propan-2-amine] are 33 nM and 62 nM.
The corresponding values for `NCC1(COc2ccc3ncc(-c4cc5ccccc5o4)n3n2)COC1` [Example 44, 1-[3-({[3-(1-Benzofuran-2-yl)imidazo[1,2-b]pyridazin-6-yl]oxy}methyl)oxetan-3-yl]methanamine] are 52 nM and 63 nM.
On to `C[C@H](N)COc1ccc2ncc(-c3cc4c(F)cccc4o3)n2n1` [Example 45, (2S)-1-{[3-(4-Fluoro-1-benzofuran-2-yl)imidazo[1,2-b]pyridazin-6-yl]oxy}-propan-2-amine], for which the IC50 on human full-length MKNK1 [1] worked out at 17 nM; against human full-length MKNK1 [2], 71 nM.
For `N[C@H](COc1ccc2ncc(-c3cc4c(F)cccc4o3)n2n1)c1ccccc1` [Example 46, (1S)-2-{[3-(4-Fluoro-1-benzofuran-2-yl)imidazo[1,2-b]pyridazin-6-yl]oxy}-1-phenylethanamine] the same measures were 36 nM and 67 nM.
For `C[C@H](CN)Oc1ccc2ncc(-c3cc4cccc(F)c4o3)n2n1` [Example 48, (2R)-2-{[3-(7-Fluoro-1-benzofuran-2-yl)imidazo[1,2-b]pyridazin-6-yl]oxy}-propan-1-amine] the same measures were 71 nM and 115 nM.
For `Cc1ccc2oc(-c3cnc4ccc(O[C@H](C)CN)nn34)cc2c1` [Example 49, (2R)-2-{[3-(5-Methyl-1-benzofuran-2-yl)imidazo[1,2-b]pyridazin-6-yl]oxy}-propan-1-amine] the same measures were 88 nM and 154 nM.
Turning to `N[C@H](COc1ccc2ncc(-c3cc4ccccc4o3)n2n1)Cc1ccccc1` [Example 50, (2S)-1-{[3-(1-Benzofuran-2-yl)imidazo[1,2-b]pyridazin-6-yl]oxy}-3-phenylpropan-2-amine], the IC50 against human full-length MKNK1 [1] worked out at 27 nM; at human full-length MKNK1 [2], 54 nM.
